# According to patent US20130079383A1, “Lipid Compounds Targeting VLA-4” (ARROWHEAD RESEARCH CORPORATION, priority 2011, published 2013):
# Counter-ions that a name gives are not always drawn.
# Target: T1, VLA-4 (Homo sapiens, UniProt P05556+P13612)
# T1 construct: Jurkat cells express high levels of VLA-4 on their membrane surface; host or cells: Jurkat Clone E6-1
# Assay: VLA-4/VCAM binding (adhesion) assay in Jurkat cells
# Assay type: cell-based
# Conditions: Jurkat cells activated with 0.5 mM Mn2+, VCAM-1-coated plates, 45 min at 37° C.
# Method: The following adhesion assay has been reported previously and used in this invention with minor modification. See U.S. Pat. Nos. 6,229,011 and 6,380,387 both of which are incorparated herein by reference in their entirety. […] Each assay was conducted in a 96-well plate with VCAM-1 used as the counter ligand for the cells (i.e., VCAM-1 was bound to the surface of the wells). More specifically, 96-well high-binding F96 Maxisorp immuno microtiter plates (Nunc) were coated overnight with 25 ng/well of VCAM-1. On the day of the experiment, plates were blocked for 1 h with PBS buffer containing 1% nonfat dry milk to eliminate nonspecific binding. The plates were then washed with DPBS (Dulbecco's Phosphate Buffered Saline) and blotted dry. Any excess liquid was carefully aspirated from the wells. As a control, the small molecule antagonist (27) for inhibiting VLA-4 referred to above was added to control wells in buffer containing 4% DMSO and diluted down the plate, typically in a concentration range of 1000 nM to 0.2 nM. Jurkat Clone E6-1 cells (ATCC) were labeled with 100 μg/mL 6-carboxyfluorescein diacetate, a fluorescent dye, and then activated with RPMI 1640 medium containing 0.5 mM of the divalent cation Mn^2+ and 0.05% bovine serum albumin. It is noted that this activation is needed to achieve maximal binding for the ligand and may simulate the activation of integrins by cytokines and chemokines in vivo. […] To assess VLA-4 inhibition of the VLA-4 targeting lipids (from the examples), Jurkat cells (expressing high levels of VLA-4) were added to the VCAM-1-coated plates to a final concentration of 2×10^5 cells/well in 96-well plates and allowed to incubate with the test lipids (from the examples) for 45 min at 37° C. After removing unbound cells by gently washing the wells with PBS, the fluorescence signal from the bound cells was read on a Tecan Safire2 microplate reader at 450 nm. Points were plotted and the IC50s of each lipid were determined by regression analysis using the linear portion of the concentration-response curve.
# T1 sequence (P13612 34-1032): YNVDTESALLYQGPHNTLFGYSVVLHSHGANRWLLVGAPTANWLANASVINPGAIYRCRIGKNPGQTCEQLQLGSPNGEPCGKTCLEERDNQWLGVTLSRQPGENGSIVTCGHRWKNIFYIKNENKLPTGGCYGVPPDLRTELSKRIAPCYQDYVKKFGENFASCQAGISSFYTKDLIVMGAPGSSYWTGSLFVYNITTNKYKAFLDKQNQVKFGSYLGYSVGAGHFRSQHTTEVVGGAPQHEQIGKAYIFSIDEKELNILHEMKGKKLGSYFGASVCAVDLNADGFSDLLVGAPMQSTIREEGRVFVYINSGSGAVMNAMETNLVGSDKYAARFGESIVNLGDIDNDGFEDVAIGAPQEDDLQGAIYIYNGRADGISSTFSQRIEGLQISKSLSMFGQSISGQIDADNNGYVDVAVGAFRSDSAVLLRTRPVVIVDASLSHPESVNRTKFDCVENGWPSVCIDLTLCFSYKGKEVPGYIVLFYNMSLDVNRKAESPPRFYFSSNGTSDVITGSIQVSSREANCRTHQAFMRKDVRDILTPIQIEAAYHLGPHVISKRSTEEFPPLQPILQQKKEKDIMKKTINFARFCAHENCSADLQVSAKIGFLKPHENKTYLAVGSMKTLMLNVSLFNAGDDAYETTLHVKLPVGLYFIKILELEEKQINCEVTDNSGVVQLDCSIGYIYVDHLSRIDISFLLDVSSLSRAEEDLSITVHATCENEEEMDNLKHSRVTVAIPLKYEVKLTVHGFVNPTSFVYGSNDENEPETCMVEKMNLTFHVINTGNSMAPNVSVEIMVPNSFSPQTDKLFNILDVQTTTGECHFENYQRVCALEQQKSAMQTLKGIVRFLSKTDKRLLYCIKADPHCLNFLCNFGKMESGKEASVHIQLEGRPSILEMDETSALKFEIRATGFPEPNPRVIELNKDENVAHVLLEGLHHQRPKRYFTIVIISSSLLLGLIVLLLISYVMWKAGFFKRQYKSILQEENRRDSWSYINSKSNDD
# T1 sequence (P05556 21-798): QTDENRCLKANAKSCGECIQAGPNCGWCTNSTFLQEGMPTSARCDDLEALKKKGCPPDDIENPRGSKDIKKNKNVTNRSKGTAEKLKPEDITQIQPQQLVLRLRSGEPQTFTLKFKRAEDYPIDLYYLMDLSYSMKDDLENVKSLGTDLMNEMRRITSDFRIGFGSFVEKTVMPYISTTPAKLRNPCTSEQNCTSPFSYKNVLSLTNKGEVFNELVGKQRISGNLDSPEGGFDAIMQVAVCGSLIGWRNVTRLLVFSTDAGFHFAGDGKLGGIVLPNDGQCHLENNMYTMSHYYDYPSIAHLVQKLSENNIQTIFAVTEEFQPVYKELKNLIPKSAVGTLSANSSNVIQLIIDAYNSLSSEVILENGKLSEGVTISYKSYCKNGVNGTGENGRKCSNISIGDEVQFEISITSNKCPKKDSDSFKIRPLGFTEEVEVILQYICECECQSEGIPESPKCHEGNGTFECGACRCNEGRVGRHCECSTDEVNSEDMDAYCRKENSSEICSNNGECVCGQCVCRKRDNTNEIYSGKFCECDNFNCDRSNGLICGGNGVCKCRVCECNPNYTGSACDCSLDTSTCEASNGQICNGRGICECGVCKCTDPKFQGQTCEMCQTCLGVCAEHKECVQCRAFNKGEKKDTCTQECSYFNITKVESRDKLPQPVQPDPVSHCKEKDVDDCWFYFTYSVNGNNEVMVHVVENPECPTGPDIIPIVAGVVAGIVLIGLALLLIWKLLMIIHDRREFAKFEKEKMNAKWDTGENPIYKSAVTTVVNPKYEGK
row,Compound,IC50 [nM]
1,"CCCCCCCCCCCCCCCCOCC(CN(C)CCCNC(=O)CCC(=O)NCCOCCOCCOCCOCCOCCOCCOCCOCCOCCOCCOCCOCCC(=O)NCCC1(C(=O)N[C@@H](Cc2ccc(NC(=O)c3c(Cl)cccc3Cl)cc2)C(=O)O)CCCC1)OCCCCCCCCCCCCCCCC (stereo partly drawn) [Example 5, (S)-Alpha-[[[1-[2-[[3-[2-[2-[2-[2-[2-[2-[2-[2-[2-[2-[2-[2-[[4-[[3-[[2,3-bis(hexadecyloxy)propyl]methylamino]propyl]amino]-1,4-dioxobutyl]amino]ethoxy]ethoxy]ethoxy]ethoxy]ethoxy]ethoxy]ethoxy]ethoxy]ethoxy]ethoxy]ethoxy]ethoxy]-1-oxoproyl]amino]ethyl]cyclopentyl]carbonyl]amino]-4-(2,6-dichlorobenzoylamino) benzenepropanoic acid]",6
2,"CCCCCCCCCCCCCCCCOCC(C[N+](C)(C)CCCNC(=O)CCC(=O)NCCOCCOCCOCCOCCOCCOCCOCCOCCOCCOCCOCCOCCC(=O)NCCC1(C(=O)NC(Cc2ccc(NC(=O)c3c(Cl)cccc3Cl)cc2)C(=O)O)CCCC1)OCCCCCCCCCCCCCCCC [Example 4, [2,3-bis(hexadecyloxy)propyl][3-[[4-[[2-2-[2-[2-[2-[2-[2-[2-[2-[2-[2-[2-[[3-[[2-[1-[[[(S)-1-carboxy-2-[4-(2,6-dichloro-benzoylamino)phenyl]ethyl]amino]carbonyl]cyclopentyl]ethyl]amino]-3-oxopropyl]oxy]ethoxy]ethoxy]ethoxy]ethoxy]ethoxy]ethoxy]ethoxy]ethoxy]ethoxy]ethoxy]ethoxy]ethyl]amino]-1,4-dioxobutyl]amino]propyl]dimethylaminium trifluoroacetate]",308
3,"CCCCCCCCCCCCOCC(C[N+](C)(C)CCCNC(=O)CCOCCOCCOCCOCCOCCOCCOCCOCCOCCC(=O)NCCC1(C(=O)N[C@@H](Cc2ccc(NC(=O)c3c(Cl)cccc3Cl)cc2)C(=O)O)CCCC1)OCCCCCCCCCCCC (stereo partly drawn) [Example 1, [2,3-bis(dodecyloxy)propyl][3-[[3-[2-[2-[2-[2-[2-[2-[2-[2-[[3-[[2-[1-[[[(S)-1-carboxy-2-[4-(2,6-dichloro-benzoylamino)phenyl]ethyl]amino]carbonyl]cyclopentyl]ethyl]amino]-3-oxopropyl]oxy]ethoxy]ethoxy]ethoxy]ethoxy]ethoxy]ethoxy]ethoxy]ethoxy]-1-oxopropyl]amino]propyl]dimethylaminium trifluoroacetate]",587
4,"CCCCCCCCCCCCOCC(C[N+](C)(C)CCCNC(=O)CCC(=O)NCCOCCOCCOCCOCCOCCOCCOCCOCCOCCOCCOCCOCCC(=O)NCCC1(C(=O)N[C@@H](Cc2ccc(NC(=O)c3c(Cl)cccc3Cl)cc2)C(=O)O)CCCC1)OCCCCCCCCCCCC (stereo partly drawn) [Example 2, [2,3-bis(dodecyloxy)propyl][3-[[4-[[2-[2-[2-[2-[2-[2-[2-[2-[2-[2-[2-[2-[[3-[[2-[1-[[[(S)-1-carboxy-2-[4-(2,6-dichloro-benzoylamino)phenyl]ethyl]amino]carbonyl]cyclopentyl]ethyl]amino]-3-oxopropyl]oxy]ethoxy]ethoxy]ethoxy]ethoxy]ethoxy]ethoxy]ethoxy]ethoxy]ethoxy]ethoxy]ethoxy]ethyl]amino]-1-4-dioxobutyl]amino]propyl]dimethylaminium trifluoroacetate]",942

# The next lines start with the values.
row,IC50 [nM],Compound
1,89,"CCCCCCCCCCCCCCCCCCCCOCC(C[N+](C)(C)CCCNC(=O)CCOCCOCCOCCOCCOCCOCCOCCOCCOCCC(=O)NCCC1(C(=O)N[C@@H](Cc2ccc(NC(=O)c3c(Cl)cccc3Cl)cc2)C(=O)O)CCCC1)OCCCCCCCCCCCCCCCCCCCC (stereo partly drawn) [Example 7, [2,3-bis(icosanyloxy)propyl][3-[[3-[2-[2-[2-[2-[2-[2-[2-[2-[[3-[[2-[1-[[[(S)-1-carboxy-2-[4-(2,6-dichloro-benzoylamino)phenyl]ethyl]amino]carbonyl]cyclopentyl]ethyl]amino]-3-oxopropyl]oxy]ethoxy]ethoxy]ethoxy]ethoxy]ethoxy]ethoxy]ethoxy]ethoxy]-1-oxopropyl]amino]propyl]dimethylaminium bromide]"
2,1000,"CCCCCCCCCCCCCCCCOCC(C[N+](C)(C)CCCNC(=O)CCOCCOCCOCCOCCOCCOCCOCCOCCOCCC(=O)NCCC1(C(=O)N[C@@H](Cc2ccc(NC(=O)c3c(Cl)cccc3Cl)cc2)C(=O)O)CCCC1)OCCCCCCCCCCCCCCCC (stereo partly drawn) [Example 3, [[2,3-bis(hexadecyloxy)propyl][3-[[3-[2-[2-[2-[2-[2-[2-[2-[2-[[3-[[2-[1-[[[(S)-1-carboxy-2-[4-(2,6-dichloro-benzoylamino)phenyl]ethyl]amino]carbonyl]cyclopentyl]ethyl]amino]-3-oxopropyl]oxy]ethoxy]ethoxy]ethoxy]ethoxy]ethoxy]ethoxy]ethoxy]ethoxy]-1-oxopropyl]amino]propyl]dimethylaminium trifluoroacetate]"
3,133,"CCCCCCCCCCCCCCCCCCOCC(C[N+](C)(C)CCCNC(=O)CCOCCOCCOCCOCCOCCOCCOCCOCCOCCC(=O)NCCC1(C(=O)N[C@@H](Cc2ccc(NC(=O)c3c(Cl)cccc3Cl)cc2)C(=O)O)CCCC1)OCCCCCCCCCCCCCCCCCC (stereo partly drawn) [Example 6, [2,3-bis(octadecyloxy)propyl][3-[[3-[2-[2-[2-[2-[2-[2-[2-[2-[[3-[[2-[1-[[[(S)-1-carboxy-2-[4-(2,6-dichloro-benzoylamino)phenyl]ethyl]amino]carbonyl]cyclopentyl]ethyl]amino]-3-oxopropyl]oxy]ethoxy]ethoxy]ethoxy]ethoxy]ethoxy]ethoxy]ethoxy]ethoxy]-1-oxopropyl]amino]propyl]dimethylaminium bromide]"
4,1000,"CCCCCCCCCCCCCCCCCCCCOCC(CN(C)CCCNC(=O)CCOCCOCCOCCOCCOCCOCCOCCOCCOCCC(=O)NCCC1(C(=O)N[C@@H](Cc2ccc(NC(=O)c3c(Cl)cccc3Cl)cc2)C(=O)O)CCCC1)OCCCCCCCCCCCCCCCCCCCC (stereo partly drawn) [Example 8, (S)-Alpha-[[[1-[2-[[3-[2-[2-[2-[2-[2-[2-[2-[2-[[3-[[3-[[2,3-bis(icosanyloxy)propyl]methylamino]propyl]amino]-3-oxopropyl]oxy]ethoxy]ethoxy]ethoxy]ethoxy]ethoxy]ethoxy]ethoxy]ethoxy]-1-oxoproyl]amino]ethyl]cyclopentyl]carbonyl]amino]-4-(2,6-dichlorobenzoylamino)benzenepropanoic acid]"

# System: KIF11 mRNA
# Assay: KIF11 mRNA knockdown in MV4-11 cells by LNP-formulated KIF11 siRNA (relative to 18S ribosomal RNA)
# Assay type: cell-based, human
# Conditions: added with no formulation as a control
# Method: FIG. 1. Bar graph illustrating KIF11 mRNA knockdown in MV4-11 cells (relative to 18S ribosomal RNA as a control) with various LNP formulations containing KIF11 siRNA (formulation nos. 54F, 54I, 54L, and 54O).
# The human cancer cell line MV4-11 was maintained in media supplemented with 10% heat-inactivated Fetal Bovine Serum (HI-FBS; Gibco/BRL, Gaithersburg, Md.) and 2 mM L-glutamine (Gibco/BRL).
# MV4-11 suspension cells in 1 ml of culturing medium were seeded in 24-well plates 24 h before transfection and RNA quantification targeting siRNA were formulated in LNPs and directly added to the medium for transfection. Cells were then collected for RNA quantification.
# Sample collection and mRNA purification for in vitro studies were performed as follows. MV4-11 cells were lysed directly on the plate with RNA lysis buffer (Qiagen). Suspension cells were collected into tubes and spun down at 2,000 rpm for 1 min, then the cell pellets were lysed with RNA lysis buffer (Qiagen). […]
# Total RNA from all collected samples was purified using Qiagen RNeasy Kit following the manufacturer's protocol. Relative quantification of target mRNA and 18S ribosomal RNA gene expression was carried out with cDNA Reverse Transcription Reagents from Applied Biosystems followed by Taqman Gene Expression Assays (Applied Biosystems) using the manufacturer's protocol. […]
row,Compound,knockdown of KIF11 expression
1,"Cc1cccc(Cl)c1C(=O)N[C@@H](Cc1ccc(NC(=O)c2c(Cl)cccc2Cl)cc1)C(=O)O [Example 27, (S)-2-(2-Chloro-6-methyl-benzoylamino)-3-[4-(2,6-dichloro-benzoylamino)-phenyl]-propionic acid]",no knockdown
